{"source": "patent US20250388597A1", "about": "“BIFUNCTIONAL PHOTOCROSSLINKING PROBES FOR COVALENT CAPTURE OF PROTEIN-NUCLEIC ACID COMPLEXES IN CELLS” (UNIVERSITY OF SOUTHERN CALIFORNIA, priority 2022, published 2025)", "key": {"MEF2A/DNA complex": {"target": "T1, MEF2A/DNA complex (Homo sapiens, UniProt Q02078)", "T1 construct": "human MEF2A DBD (residues 2-95); made in house", "T1 sequence (Q02078 2-95)": "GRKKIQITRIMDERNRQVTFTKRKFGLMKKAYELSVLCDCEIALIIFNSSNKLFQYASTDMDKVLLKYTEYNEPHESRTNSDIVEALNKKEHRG", "test": "In vitro photo-crosslinking of assembled MEF2/DNA complex, read on denaturing SDS/urea gel or agarose gel", "type": "biochemical", "settings": "for selectivity for DNA binding protein versus non-DNA binding protein BSA: BSA under the same condition; for formation of covalent MEF2/DNA crosslinked complex: probe + UV, denaturing gel", "excerpt": "In vitro assays have confirmed the success and the efficiency of the demo probe (AMT-LC-SDA) in crosslinking double strand DNA of various contents and DNA-binding protein human myocyte enhancer factor 2A (MEF2A) (1-95 aa) (FIG. 5C-FIG. 5E). The solid crosslinking is confirmed for the probe with UV photo crosslinking conditions by denaturing or digestive approaches such as running with 8.3 M urea gel, SDS gel, combined with sample with overnight digestion of proteinase K at 65 Celsius and denatured at high temperature of 95 Celsius with SDS loading dye. […] Under these harsh evaluation conditions, the protein got digested on the crosslinking complex thoroughly, yet the remaining crosslinked amino acids residuals still have made the DNA to be in a larger size and shifted clearly compared to other controls, which is indicated by the bold shaped arrow. Agarose gel was also used for its bigger pore size to estimate the crosslinking efficiency (UV 2 hrs), estimated by the amount of the left free DNA, our probe has reached around 30-60% efficiency (FIG. 5E), which is much higher than the UV-initiated protein DNA crosslinking without the use of a probe (10-20%) as reported in Nature Communications, volume 11, Article number: 3019 (2020). […] This further supports the idea of applying this probe for replacement of formaldehyde, it crosslinks the protein only within the proximity of nucleic acids, thereby largely reducing the random protein-protein crosslinking noise and helps to preserve the native state of protein epitopes.\nThe BFPX probe 4AMT-LC-SDA was synthesized with good yield by the NHS-amine chemistry using psoralen and diazirine derivatives (FIG. 5A, FIG. 5B). To test its photo crosslinking ability, human transcription factor MEF2A (the MADS-box/MEF2 domain) and double strand DNA containing a MEF2 binding site were used. We first used electrophoresis mobility shift assay (EMSA) to validate the activity of the purified recombinant MEF2A DNA-binding domain. After finding out the optimal protein to DNA ratio, the in vitro assembled MEF2/DNA complex was then subject to photocrosslinking in the presence or absence of the 4AMT-LC-SDA probe with or without UV illumination. Multiple other control experiments were carried out in parallel to test the specificity of photocrosslinking between the DNA and MEF2. Specifically, parameters such as protein/DNA amounts (1:[…]), ratio, UV time (10 m to 4 hrs), wavelength (320 to 360 nm), LV source (mercury long lamp, LED) and their distance to the reaction mixture have been optimized along the course. The MEF2 Protein and DNA were incubated first to mimic an in vivo binding mode and stoichiometry, and then the mixture was incubated with our 4AMT-LC-SDA probe to undergo UV illumination. The results were evaluated by running denaturing gels (SDS in FIG. 5D, or Urea in FIG. 5C) against the high temperature denatured reaction mixtures and checking the respective protein (silver stain) or DNA (FAM label) signals. To further rule out any other possible false positiveness during loading, proteinase K digestion was applied to all the samples including the negative controls with SDS at 65 degrees."}, "NFAT1/DNA complex": {"target": "T2, NFAT1/DNA complex (Homo sapiens, UniProt Q13469)", "T2 construct": "human NFAT1 protein (residue 399-676, NFAT1-DBD)", "T2 sequence (Q13469 399-676)": "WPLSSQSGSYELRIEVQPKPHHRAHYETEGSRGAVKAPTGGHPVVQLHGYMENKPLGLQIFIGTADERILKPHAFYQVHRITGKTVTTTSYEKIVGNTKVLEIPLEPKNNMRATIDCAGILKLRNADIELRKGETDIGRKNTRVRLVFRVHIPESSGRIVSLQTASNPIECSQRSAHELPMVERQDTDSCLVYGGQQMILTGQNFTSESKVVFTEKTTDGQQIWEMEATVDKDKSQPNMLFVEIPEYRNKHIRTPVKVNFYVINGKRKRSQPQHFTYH", "test": "In vitro photo-crosslinking of assembled NFAT1/DNA complex, denaturing SDS gel", "type": "biochemical", "method": "The probe binding and UV crosslinking were carried out as described in FIG. 5G and FIG. 7. The crosslinked complexes (lane 3 and lane 6) were further treated with DTT (100 mM, heat 50 degree C. for 30 min). The reaction mixtures were run on SDS gel and visualized by FAM fluorescence for DNA (top) and by Coomassie blue stain for protein (bottom) as described in FIG. 7. FIG. 7 depicts denaturing SDS gel analysis of covalent capture of in vitro assembled MEF2/DNA and NFAT1/DNA complexes by the BFPX probe, SPB-AAD. […] The protein/DNA complexes are incubated at room temperature for 30 min, and treated with various combination of BFPX probe (SPB-AAD) and UV illumination as described in FIG. 5G. […] The reaction mixtures were added SDS loading dye (2% SDS), boil for 10 min, and run on SDS gel (Bio-Rad Any Kd gradient gel). The same gel was visualized by FAM fluorescence for DNA (top) and by Coomassie blue stain for protein (bottom). FIG. 8C depicts denaturing SDS gel analysis of covalent capture of in vitro assembled MEF2/DNA and NFAT1/DNA complexes by the BFPX probe, SPB-PEG3-AAD. […] The reaction mixtures were run on SDS gel and visualized by FAM fluorescence for DNA (top) and by Coomassie blue stain for protein (bottom) as described in FIG. 7. […] Typically protein and DNA are mixed to bind at room temperature for 30 min, followed by addition of BFPX probes for an additional 15 min and then UV illumination. In the case of FA treatment, the reaction time is 10 min at room temperature and then quenched by 250 mM glycine. […] The UV illumination (as indicated by a positive sign) was carried out using a LED Chip (21.4 mm×21.4 mm, 365-370 nm, 30 Watt, sample distance 2 cm, exposure time 2-15 min at 4 degree C., here the exposure time is 15 min). […] The small amount of single stranded DNA is due to incomplete annealing. The higher smearing bands are most likely non-specific protein complexes. Neither of these experimental imperfections affected the main conclusion of this experiment because the double stranded-DNA bands and the specific NFAT-DNA complex bands (the middle sharp bands) are well defined and can be monitored without the interference of the other bands. […] The gel was visualized by Cy5 fluorescence for DNA. FIG. 12E depicts further characterization of BFPX crosslinking of NFAT1/DNA complexes using different DNA substrates and staining techniques. Two unlabeled DNA substrates containing a core NFAT-binding site and different flanking bases and sequence lengths ([…] ID NO: 4), 21 mer, c2: [NT] ID NO: 5), 16 mer) were used to bind the NFAT1-DBD as described in FIG. 12C. […] The reactions were then analyzed by SDS PAGE under denaturing condition as described in FIG. 12D. Because the DNA is unlabeled, the gel was stained using either cyanine-based dye (SYBR Safe) or Coomassie Blue stain (CB). […] The different size of the NFAT-c1DNA complexes (lane 2) and NFAT-c2DNA complexes (lane 4) was resolved by loading reactions of lane 2 (2a, 2b and 2c) and lane 4 (4a, 4b and 4c) as triplicates side-by-side on the same gel (lower panel) using either SYBR and CB stain. FIG. 12F depicts time course of BFPX crosslinking of NFAT1/DNA complexes. […] The reactions at different time points were then analyzed on SDS gel as described in FIG. 12D. […] When the UV exposure time is longer than 5 min, a significant amount of crosslinked NFAT-DNA complex can be formed with UV illumination without SPB-AAD."}, "DNA binding by NFAT1": {"target": "T3, DNA binding by NFAT1 (Homo sapiens, UniProt Q13469)", "T3 construct": "human NFAT1 protein (residue 399-676, NFAT1-DBD)", "T3 sequence (Q13469 399-676)": "T2 sequence (Q13469 399-676)", "test": "Native EMSA of the effect on DNA binding by NFAT1", "type": "biochemical", "experimental": "All binding reactions contain 10 μM 27 mer dsDNA (5′6-FAM labeled) with a NFAT-binding site, and various combinations of NFAT1 protein (14 μM), FA (1% v/v), 4AMT-LC-SDA (20 μM), with or without UV illumination (365 nm, LED, 30 Watt, sample distance 2 cm, exposure time 15 min at 4 degree C.). 10 μl of the binding reaction is run on a 10% PAGE 0.5×TBE gel. The same gel was visualized by FAM fluorescence for DNA (top) and by Coomassie blue stain for protein (bottom). The higher smearing bands in lane 3, 8, 9, and 10 are most likely non-specific protein complexes often seen when an excessive amount of protein is used to ensure all DNA is bound.\nThe binding reactions were performed in a buffer of 20 mM Hepes pH 7.6, 150 mM NaCl, 1 mM DTT, 12% glycerol. Typically protein and DNA are mixed to bind at room temperature for 30 min, followed by addition of BFPX probes for an additional 15 min and then UV illumination. In the case of FA treatment, the reaction time is 10 min at room temperature and then quenched by 250 mM glycine. When included (as indicated by a positive sign), the binding reaction contains 10 μM 27 mer dsDNA (Cy5-labeled) with a NFAT-binding site (the antigen receptor response element 2, ARRE2, from the IL-2 promoter, 5′-Cy5-[sequence]-3′ (SEQ ID NO: 2), the complementary strand is not labeled), 24 μM of the DNA binding domain (DBD) of human NFAT1 protein (residue 399-676, NFAT1-DBD). The UV illumination (as indicated by a positive sign) was carried out using a LED Chip (21.4 mm×21.4 mm, 365-370 nm, 30 Watt, sample distance 2 cm, exposure time 2-15 min at 4 degree C., here the exposure time is 15 min). Half of the binding reaction (7.5 μl) was run on a 10% PAGE 0.5×TBE gel and visualized by Cy5 fluorescence on DNA. The small amount of single stranded DNA is due to incomplete annealing. The higher smearing bands are most likely non-specific protein complexes. Neither of these experimental imperfections affected the main conclusion of this experiment because the double stranded-DNA bands and the specific NFAT-DNA complex bands (the middle sharp bands) are well defined and can be monitored without the interference of the other bands.\nThe presence of both DNA and protein in the same shifted band can be checked by the FAM fluorescence signal (top) and Coomassie stain (bottom), respectively (free NFAT is positively charged and not observable under the EMSA condition)."}, "GM12878 cell lines": {"system": "GM12878 cell lines", "test": "Crosslinking in suspension GM12878 cell lines, electrophoresis after sonication", "type": "cell-based", "settings": "compared to the no-probe or no-UV controls; FIG. 5F", "excerpt": "For this, we tested the prototype BFPX probe 4AMT-LC-SDA in the suspension GM12878 cell lines."}}, "note": "Entries after “also recorded” stand apart in the source; their conditions may differ."}
{"smiles": "Cc1oc2c(C)c3oc(=O)cc(C)c3cc2c1CNC(=O)CCCCCNC(=O)CCC1(C)N=N1", "note": "[4AMT-LC-SDA]", "values": [{"measurement": "selectivity for DNA binding protein versus non-DNA binding protein BSA", "setting": "MEF2A/DNA complex", "result": "did not show any signs of forming crosslink with the DNA"}, {"measurement": "selectivity for DNA binding protein versus non-DNA binding protein BSA", "setting": "MEF2A/DNA complex; listed as AMT-LC-SDA", "result": "only MEF2A sample shows consumption of DNA substrate by crosslinking"}, {"measurement": "photo crosslinking efficiency of the MEF2-DNA complex", "setting": "MEF2A/DNA complex; agarose gel, comparison of band intensities", "result": "around 50%"}, {"measurement": "crosslinking efficiency, estimated by the amount of the left free DNA", "setting": "MEF2A/DNA complex; agarose gel, UV 2 hrs, dsDNA + MEF2A (1-95 aa)", "result": "30-60%"}, {"measurement": "formation of covalent MEF2/DNA crosslinked complex", "setting": "MEF2A/DNA complex", "result": "successful photo crosslink complex between protein and DNA; also recorded: highly efficient crosslinking"}, {"measurement": "formation of covalent MEF2/DNA crosslinked complex", "setting": "MEF2A/DNA complex; listed as AMT-LC-SDA", "result": "the crosslinking of protein and nucleic acids takes place"}, {"measurement": "effect of DTT treatment on the crosslinked NFAT-DNA complex", "setting": "NFAT1/DNA complex; 25 μM probe, DTT 100 mM, 50 degree C., 30 min, FIG. 5H", "result": "little effect"}, {"measurement": "formation of covalent NFAT1/DNA crosslinked complex stable under denaturing SDS-PAGE", "setting": "NFAT1/DNA complex; probe + UV 365 nm, 2% SDS, boil 10 min", "result": "highly efficient crosslinking; also recorded: crosslinked NFAT to its DNA substrate efficiently"}, {"measurement": "effect on the DNA binding by NFAT1", "setting": "DNA binding by NFAT1; FIG. 5G, FA 1% v/v, 4AMT-LC-SDA 20 μM with or without UV 365 nm", "result": "did not affect"}, {"measurement": "effect on NFAT1 protein", "setting": "DNA binding by NFAT1; with and without UV365, data not shown", "result": "did not affect NFAT1 protein"}, {"measurement": "crosslink effect in cells", "setting": "GM12878 cell lines", "result": "good crosslink effect"}]}
